Source: patent publication US7423157B2, “Substituted benzimidazoles and their use for inducing apoptosis” (Basilea Pharmaceutica AG, priority 2004, dated 2008)

Tests used:
Jily = assay: Hoechst 33342 nuclear staining, Jily; assay type: cell-based; conditions: 48 h
Experimental: (§1) This assay is performed in 96 well tissue culture plates. Appropriate number of cells (adherent cells: 3-5*10^3, suspension cells: 8-10*10^3) are being seeded out in 80 μl complete medium. Adherent cells are incubated for 24 h for proper spreading out before addition of test compounds while suspension cells are immediately treated with test compounds after seeding out. The test compounds are added in 20 μl complete medium containing max 5% DMSO. The final compound concentrations in the assays are 10 μM, 3 μM, 1 μM and 0.3 μM, respectively. […] The assay plates are then further incubated for 30 minutes and subsequently analyzed with a standard inverted fluorescence microscope.
(§2) The readout allows the determination of the fraction of apoptotic nuclei as well as other morphological criteria specific for apoptosis as a function of the treatment. The following scores are used: 0 relating to no activity, 1 relating to weak activity comprising less than 50% of the cells and score 2 relating to strong activity comprising more than 50% of the cells.

PBLs = assay: Hoechst 33342 nuclear staining, PBLs; assay type: cell-based; set-up: key: 0 = no activity, 1 = weak (<50% of cells), 2 = strong (>50% of cells); conditions: 48 h
Experimental: as §1, §2

HeLa [1] = assay: Hoechst 33342 nuclear staining, HeLa; assay type: cell-based, human; conditions: 48 h
Experimental: as §1, §2

H460 = assay: Hoechst 33342 nuclear staining, H460; assay type: cell-based, human; conditions: H460, 48 h
Experimental: as §1, §2

Jurkat [2] = assay: MTS proliferation assay, Jurkat; assay type: cell-based, human; conditions: 72 h incubation
Experimental: (§3) The assay is performed in 96 well tissue culture plates. The cells (range: 1.5*10^3-10^4) are seeded out in 80 μl complete medium 24 h prior to compound treatment. The test compounds are added in 20 μl complete medium containing max 5% DMSO. The final compound concentrations in the assays are 10 μM, 3 μM, 1 μM and 0.3 μM, respectively. The assay plates are incubated for 72 h at culture conditions. The MTS reagent is prepared according to the manufacturer's protocol (Promega G1111). 20 μl MTS reagent are added to each well, the assay plates are quickly spun and incubated for another 3 h at culture conditions. Subsequently, the plates are shortly shaked and absorption measured with a microplate-reader at 492 nm.

HeLa [3] = assay: MTS proliferation assay, HeLa; assay type: cell-based, human; conditions: 72 h incubation
Experimental: as §3

Jurkat [4] = assay: Hoechst 33342 nuclear staining, Jurkat; assay type: cell-based, human; conditions: 48 h
Experimental: as §1, §2

MRC5 = assay: Hoechst 33342 nuclear staining, MRC5; assay type: cell-based; set-up: key: 0 = no activity, 1 = weak (<50% of cells), 2 = strong (>50% of cells); conditions: MRC5, 48 h
Experimental: as §1, §2

Row | Compound | Hoechst 33342 nuclear staining score (Jily; conc. 0.3 (μM)) | Hoechst 33342 nuclear staining score (Jily; conc. 1 (μM)) | Hoechst 33342 nuclear staining score (Jily; conc. 3 (μM)) | Hoechst 33342 nuclear staining score (Jily; conc. 10 (μM)) | Hoechst 33342 nuclear staining score (PBLs; conc. 0.3 (μM)) | Hoechst 33342 nuclear staining score (PBLs; conc. 1 (μM)) | Hoechst 33342 nuclear staining score (PBLs; conc. 3 (μM)) | Hoechst 33342 nuclear staining score (PBLs; conc. 10 (μM)) | Hoechst 33342 nuclear staining score (HeLa [1]; conc. 0.3 (μM)) | Hoechst 33342 nuclear staining score (HeLa [1]; conc. 1 (μM)) | Hoechst 33342 nuclear staining score (HeLa [1]; conc. 3 (μM)) | Hoechst 33342 nuclear staining score (HeLa [1]; conc. 10 (μM)) | Hoechst 33342 nuclear staining score (H460; conc. 0.3 (μM)) | Hoechst 33342 nuclear staining score (H460; conc. 1 (μM)) | Hoechst 33342 nuclear staining score (H460; conc. 3 (μM)) | Hoechst 33342 nuclear staining score (H460; conc. 10 (μM)) | Hoechst 33342 nuclear staining score (Jurkat [4]; conc. 0.3 (μM)) | Hoechst 33342 nuclear staining score (Jurkat [4]; conc. 1 (μM)) | Hoechst 33342 nuclear staining score (Jurkat [4]; conc. 3 (μM)) | Hoechst 33342 nuclear staining score (Jurkat [4]; conc. 10 (μM)) | other results
1 | Nc1ccc(C(=O)Cn2c(-n3ncnc3N)nc3ccccc32)cn1 [Example 14] | 2 (score 2 relating to strong activity comprising more than 50% of the cells) | 2 (score 2 relating to strong activity comprising more than 50% of the cells) | 2 (score 2 relating to strong activity comprising more than 50% of the cells) | 2 (score 2 relating to strong activity comprising more than 50% of the cells) | 0 | 0 | 0 | 0 | 2 (score 2 relating to strong activity comprising more than 50% of the cells) | 2 (score 2 relating to strong activity comprising more than 50% of the cells) | 2 (score 2 relating to strong activity comprising more than 50% of the cells) | 2 (score 2 relating to strong activity comprising more than 50% of the cells) | 2 (score 2 relating to strong activity comprising more than 50% of the cells) | 2 (score 2 relating to strong activity comprising more than 50% of the cells) | 2 (score 2 relating to strong activity comprising more than 50% of the cells) | 2 (score 2 relating to strong activity comprising more than 50% of the cells) | 2 (score 2 relating to strong activity comprising more than 50% of the cells) | 2 (score 2 relating to strong activity comprising more than 50% of the cells) | 2 (score 2 relating to strong activity comprising more than 50% of the cells) | 2 (score 2 relating to strong activity comprising more than 50% of the cells) | IC50 (Jurkat [2]): < 0.1 µM; IC50 (HeLa [3]): 0.1 to 1 µM; Hoechst 33342 nuclear staining score (MRC5; conc. 0.3 (μM)): 1 (1 relating to weak activity comprising less than 50% of the cells); Hoechst 33342 nuclear staining score (MRC5; conc. 1 (μM)): 1 (1 relating to weak activity comprising less than 50% of the cells); Hoechst 33342 nuclear staining score (MRC5; conc. 3 (μM)): 1 (1 relating to weak activity comprising less than 50% of the cells); Hoechst 33342 nuclear staining score (MRC5; conc. 10 (μM)): 1 (1 relating to weak activity comprising less than 50% of the cells)
2 | CS(=O)(=O)O.Nc1ccc(C(=O)Cn2c(-n3ncnc3N)nc3ccccc32)cn1 [Example 15] | 2 (score 2 relating to strong activity comprising more than 50% of the cells) | 2 (score 2 relating to strong activity comprising more than 50% of the cells) | 2 (score 2 relating to strong activity comprising more than 50% of the cells) | 2 (score 2 relating to strong activity comprising more than 50% of the cells) | 0 | 0 | 0 | 0 | 2 (score 2 relating to strong activity comprising more than 50% of the cells) | 2 (score 2 relating to strong activity comprising more than 50% of the cells) | 2 (score 2 relating to strong activity comprising more than 50% of the cells) | 2 (score 2 relating to strong activity comprising more than 50% of the cells) | 2 (score 2 relating to strong activity comprising more than 50% of the cells) | 2 (score 2 relating to strong activity comprising more than 50% of the cells) | 2 (score 2 relating to strong activity comprising more than 50% of the cells) | 2 (score 2 relating to strong activity comprising more than 50% of the cells) | 2 (score 2 relating to strong activity comprising more than 50% of the cells) | 2 (score 2 relating to strong activity comprising more than 50% of the cells) | 2 (score 2 relating to strong activity comprising more than 50% of the cells) | 2 (score 2 relating to strong activity comprising more than 50% of the cells) | Hoechst 33342 nuclear staining score (MRC5; conc. 0.3 (μM)): 1 (1 relating to weak activity comprising less than 50% of the cells); Hoechst 33342 nuclear staining score (MRC5; conc. 1 (μM)): 1 (1 relating to weak activity comprising less than 50% of the cells); Hoechst 33342 nuclear staining score (MRC5; conc. 3 (μM)): 1 (1 relating to weak activity comprising less than 50% of the cells); Hoechst 33342 nuclear staining score (MRC5; conc. 10 (μM)): 1 (1 relating to weak activity comprising less than 50% of the cells)
3 | COc1ccc(C(=O)Cn2c(-n3ccc(N)n3)nc3ccccc32)cc1 [Example 2, 5-Amino-2-(1-[4-methoxyphenylcarbonylmethyl]benzimidazol-2-yl)-pyrazole] | 0 | 2 (score 2 relating to strong activity comprising more than 50% of the cells) | 2 (score 2 relating to strong activity comprising more than 50% of the cells) | 2 (score 2 relating to strong activity comprising more than 50% of the cells) | 0 | 0 | 0 | 2 (score 2 relating to strong activity comprising more than 50% of the cells) | 0 | 0 | 2 (score 2 relating to strong activity comprising more than 50% of the cells) | 2 (score 2 relating to strong activity comprising more than 50% of the cells) | 0 | 0 | 2 (score 2 relating to strong activity comprising more than 50% of the cells) | 2 (score 2 relating to strong activity comprising more than 50% of the cells) | 0 | 0 | 2 (score 2 relating to strong activity comprising more than 50% of the cells) | 2 (score 2 relating to strong activity comprising more than 50% of the cells) | Hoechst 33342 nuclear staining score (MRC5; conc. 0.3 (μM)): 0; Hoechst 33342 nuclear staining score (MRC5; conc. 1 (μM)): 0; Hoechst 33342 nuclear staining score (MRC5; conc. 3 (μM)): 0; Hoechst 33342 nuclear staining score (MRC5; conc. 10 (μM)): 0
